One test deals with Stx1B (Stx1 B-subunits) (Bacteriophage H30, UniProt P69178). It counts as binding, Escherichia coli O157:H7. Conditions: read-out: Kd of Stx1B for glycan.
Another test concerns the target Stx2B (Stx2 B-subunits) (Escherichia phage 933W, UniProt P09386). It counts as binding, Escherichia coli O157:H7.

1 substance from paper PMC3278406 (PLoS ONE, 2012) can be followed below.

Where only a bound is given, the exact number is not on record here.

Sequence of Stx2B (Stx2 B-subunits) (P09386 20-89 limits assumed): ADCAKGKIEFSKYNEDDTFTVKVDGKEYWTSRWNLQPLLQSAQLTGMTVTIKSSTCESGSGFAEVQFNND
Sequence of Stx1B (Stx1 B-subunits) (P69178 21-89 limits assumed): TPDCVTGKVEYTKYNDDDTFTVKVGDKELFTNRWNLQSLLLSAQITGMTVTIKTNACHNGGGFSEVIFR

As to Galα1-4Galβ1-4Glc [Pk], the figures for the dissociation constant Kd on Stx1B (Stx1 B-subunits) and on Stx2B (Stx2 B-subunits) (read-out: Kd of Stx2B for glycan) were 4 ± 0.3 mM and more than 12 mM, respectively. Also, the “binding of Stx2B to glycan” value at Stx2B (Stx2 B-subunits) is listed as “no binding”.
